Data set [1] in a line: Human plasma half-life assay. In kind it is in vitro ADME. The conditions noted are these: 37° C., LC-MS, read-out: Human Plasma T½ (converted).
Data set [2] can be described thus: Rat plasma half-life assay. In kind it is in vitro ADME. The conditions noted are these: 37° C., LC-MS, read-out: Rat Plasma T½ (converted).
Data set [3] concerns the target T1, human recombinant GIP receptor (Homo sapiens, UniProt P48546).
T1 construct: expressed in transfected cells; host or cells: CHO-K1 clonal cells (membrane preparation)
T1 sequence (P48546 22-466): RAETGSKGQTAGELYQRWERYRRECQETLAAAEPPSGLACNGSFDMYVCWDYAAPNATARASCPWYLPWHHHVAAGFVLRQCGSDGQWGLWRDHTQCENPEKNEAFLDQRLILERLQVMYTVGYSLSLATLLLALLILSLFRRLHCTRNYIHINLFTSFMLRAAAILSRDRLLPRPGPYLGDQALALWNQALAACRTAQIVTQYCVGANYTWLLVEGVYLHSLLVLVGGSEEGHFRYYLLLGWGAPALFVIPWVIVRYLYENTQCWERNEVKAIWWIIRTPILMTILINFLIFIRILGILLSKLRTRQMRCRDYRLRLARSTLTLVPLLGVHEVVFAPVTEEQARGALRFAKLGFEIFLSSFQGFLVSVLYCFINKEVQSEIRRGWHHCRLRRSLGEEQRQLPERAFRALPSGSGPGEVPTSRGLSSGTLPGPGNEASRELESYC
The experiment in a line: In vitro hGIP receptor binding assay. Here is the method:
A. In Vitro hGIP Receptor Binding Assay […] The incubations were terminated by rapid filtration through GF/C filters (pre-soaked in 0.5% polyethylenimine) using a Brandel filtration manifold. Each tube and filter were then washed three times with 5-ml aliquots of ice-cold buffer.

A further data set relates to insulin secretion. The experiment in a line: Determination of in vivo insulin secretion in normal rats. The conditions noted are these: fasted male Sprague Dawley rats, compound iv with glucose (1 g/kg), plasma insulin up to 20 minutes post-glucose. Here is the method:
D. Determination of in vivo Insulin Secretion in Normal Rats Male Sprague Dawley rats with a body weight of approximately 275-300 g were used as experimental subjects. The day prior to the treatment, right atrial cannulae were implanted via the jugular vein under chlorohydrate. Each cannula was filled with 100 u/ml heparin saline and tied. […] The day of the experiment, aliquots of compound were thawed, brought to room temperature and vortexed thoroughly. […] At time 0, a 500 μl blood sample was withdrawn through the cannula. Next, either the vehicle or the appropriate dose of the compound was injected into the cannula and pushed in with the glucose (1 g/kg) or vehicle solution. Finally, 500 μl of volume of heparinized saline (10 u/ml) was used to push in the remaining glucose through the cannula. […] The plasma was collected from the blood samples by centrifugation, and stored at −20° C. until assay for insulin content.

The results in this text go back to US8999940B2 (Ipsen Pharma S.A.S., priority 2008, dated 2015).

Where no end group is shown, it is not given here. [ ]: non-standard residue; d: D form. Tyr(3-Cl) = N[C@@H](Cc1ccc(O)c(Cl)c1)C(=O)O; Phe(4-CN) = N#Cc1ccc(C[C@H](N)C(=O)O)cc1; Nle = CCCC[C@H](N)C(=O)O; Ac5c = NC1(C(=O)O)CCCC1; Aib = CC(C)(N)C(=O)O Where only a bound is given, the exact number is not on record here.

On to `CC[C@H](C)[C@H](NC(=O)[C@H](CCCCN)NC(=O)[C@H](CC(=O)O)NC(=O)[C@H](CCSC)NC(=O)[C@H](C)NC(=O)[C@@H](NC(=O)C1(NC(=O)[C@H](Cc2ccc(O)cc2)NC(=O)[C@H](CC(=O)O)NC(=O)[C@H](CO)NC(=O)[C@@H](NC(=O)[C@H](Cc2ccccc2)NC(=O)[C@@H](NC(=O)CNC(=O)[C@H](CCC(=O)O)NC(=O)C(C)(C)NC(=O)[C@@H](N)Cc2ccc(O)c(OC)c2)[C@@H](C)O)[C@@H](C)CC)CCCC1)[C@@H](C)CC)C(=O)N[C@@H](Cc1c[nH]cn1)C(=O)N[C@@H](CCC(N)=O)C(=O)N[C@@H](CCC(N)=O)C(=O)N[C@@H](CC(=O)O)C(=O)N[C@@H](Cc1ccccc1)C(=O)N[C@H](C(=O)N[C@@H](CC(N)=O)C(=O)N[C@@H](Cc1c[nH]c2ccccc12)C(=O)N[C@@H](CC(C)C)C(=O)N[C@@H](CC(C)C)C(=O)N[C@@H](C)C(=O)N[C@@H](CCC(N)=O)C(=O)N[C@@H](CCCCN)C(=O)NCC(=O)N[C@@H](CCCCN)C(=O)N[C@@H](CCCCN)C(=O)N[C@@H](CC(N)=O)C(=O)N[C@@H](CC(=O)O)C(=O)N[C@@H](Cc1c[nH]c2ccccc12)C(=O)N[C@@H](CCCCN)C(=O)N[C@@H](Cc1c[nH]cn1)C(=O)N[C@@H](CC(N)=O)C(=O)N[C@H](C(=O)NC1(C(=O)N[C@@H](CCC(N)=O)C(=O)O)CCCC1)[C@@H](C)CC)C(C)C` [Example 28, (3MeO-Tyr^1, Aib^2, A5c^11, 41)hGIP(1-42)-OH], for which the results for the half-life at 0.1 mg/ml in data set [1] and in data set [2] were above 57 h and 10 h, respectively. For the same molecule, the Ki in data set [3] came out at 1.24 nM. The “AUC (total insulin secretion)” value in the data set with insulin secretion worked out at 92.88.

Take “H-[Tyr(3-Cl)][Aib]EGTFISDY[Ac5c]IA[Nle]DKIHQQDFVNWLLAQKGKKNDWKHNITQ-OH [Example 14, (3Cl-Tyr^1, Aib^2, A5c^11, Nle^14)hGIP(1-42)-OH]”: the half-life at 0.1 mg/ml in data set [1] is 52.1 h; in data set [2], 27.4 h. The Ki in data set [3] came to 0.42 nM. The “AUC (total insulin secretion)” value with insulin secretion is on record as 189.54.

With `CCCC[C@H](NC(=O)[C@H](C)NC(=O)[C@@H](NC(=O)C1(NC(=O)[C@H](Cc2ccc(O)cc2)NC(=O)[C@H](CC(=O)O)NC(=O)[C@H](CO)NC(=O)[C@@H](NC(=O)[C@H](Cc2ccccc2)NC(=O)[C@@H](NC(=O)CNC(=O)[C@H](CCC(=O)O)NC(=O)C(C)(C)NC(=O)[C@@H](N)CCc2ccc(O)cc2)[C@@H](C)O)[C@@H](C)CC)CCCC1)[C@@H](C)CC)C(=O)N[C@@H](CC(=O)O)C(=O)N[C@@H](CCCCN)C(=O)N[C@H](C(=O)N[C@@H](Cc1c[nH]cn1)C(=O)N[C@@H](CCC(N)=O)C(=O)N[C@@H](CCC(N)=O)C(=O)N[C@@H](CC(=O)O)C(=O)N[C@@H](Cc1ccccc1)C(=O)N[C@H](C(=O)N[C@@H](CC(N)=O)C(=O)N[C@@H](Cc1c[nH]c2ccccc12)C(=O)N[C@@H](CC(C)C)C(=O)N[C@@H](CC(C)C)C(=O)N[C@@H](C)C(=O)N[C@@H](CCC(N)=O)C(=O)N[C@@H](CCCCN)C(=O)NCC(=O)N[C@@H](CCCCN)C(=O)N[C@@H](CCCCN)C(=O)N[C@@H](CC(N)=O)C(=O)N[C@@H](CC(=O)O)C(=O)N[C@@H](Cc1c[nH]c2ccccc12)C(=O)N[C@@H](CCCCN)C(=O)N[C@@H](Cc1c[nH]cn1)C(=O)N[C@@H](CC(N)=O)C(=O)N[C@H](C(=O)N[C@H](C(=O)N[C@@H](CCC(N)=O)C(=O)O)[C@@H](C)O)[C@@H](C)CC)C(C)C)[C@@H](C)CC` [Example 19, (hTyr^1, Aib^2, A5c^11, Nle^14)hGIP(1-42)-OH], the half-life at 0.1 mg/ml in data set [1] is above 72 h; in data set [2], 15.2 h. Also, the Ki in data set [3] came out at 77.3 nM.

As for `CC[C@H](C)[C@H](NC(=O)[C@H](CCCCN)NC(=O)[C@H](CC(=O)O)NC(=O)[C@H](CCSC)NC(=O)[C@H](C)NC(=O)[C@@H](NC(=O)C1(NC(=O)[C@H](Cc2ccc(O)cc2)NC(=O)[C@H](CC(=O)O)NC(=O)[C@H](CO)NC(=O)[C@@H](NC(=O)[C@H](Cc2ccccc2)NC(=O)[C@@H](NC(=O)CNC(=O)[C@H](CCC(=O)O)NC(=O)C(C)(C)NC(=O)[C@@H](N)Cc2cccc(F)c2)[C@@H](C)O)[C@@H](C)CC)CCCC1)[C@@H](C)CC)C(=O)N[C@@H](Cc1c[nH]cn1)C(=O)N[C@@H](CCC(N)=O)C(=O)N[C@@H](CCC(N)=O)C(=O)N[C@@H](CC(=O)O)C(=O)N[C@@H](Cc1ccccc1)C(=O)N[C@H](C(=O)N[C@@H](CC(N)=O)C(=O)N[C@@H](Cc1c[nH]c2ccccc12)C(=O)N[C@@H](CC(C)C)C(=O)N[C@@H](CC(C)C)C(=O)N[C@@H](C)C(=O)N[C@@H](CCC(N)=O)C(=O)N[C@@H](CCCCN)C(=O)NCC(=O)N[C@@H](CCCCN)C(=O)N[C@@H](CCCCN)C(=O)N[C@@H](CC(N)=O)C(=O)N[C@@H](CC(=O)O)C(=O)N[C@@H](Cc1c[nH]c2ccccc12)C(=O)N[C@@H](CCCCN)C(=O)N[C@@H](Cc1c[nH]cn1)C(=O)N[C@@H](CC(N)=O)C(=O)N[C@H](C(=O)NC1(C(=O)N[C@@H](CCC(N)=O)C(=O)O)CCCC1)[C@@H](C)CC)C(C)C` [Example 41, (3F-Phe^1, Aib^2, A5c^11, 41)hGIP(1-42)-OH], the figures for the half-life at 0.1 mg/ml in data set [1] and in data set [2] were 63.6 h and above 66 h, respectively. The Ki in data set [3] is 5.43 nM.

For the molecule “[Phe(4-CN)][Aib]EGTFISDY[Ac5c]IAMDKIHQQDFVNWLLAQKGKKNDWKHNITQH-OH [Example 79, (4CN-Phe^1, Aib^2, A5c^11, His^43)hGIP(1-43)-OH]”, the half-life at 0.1 mg/ml is 26.3 h in data set [1] and 21.7 h in data set [2]. Further, the Ki in data set [3] was determined as 5.12 nM.

Consider `CCCC[C@H](NC(=O)[C@H](C)NC(=O)[C@@H](NC(=O)C1(NC(=O)[C@H](Cc2ccc(O)cc2)NC(=O)[C@H](CC(=O)O)NC(=O)[C@H](CO)NC(=O)[C@@H](NC(=O)[C@H](Cc2ccccc2)NC(=O)[C@@H](NC(=O)CNC(=O)[C@H](CCC(=O)O)NC(=O)C(C)(C)NC(=O)[C@@H](N)Cc2ccc(Cl)cc2)[C@@H](C)O)[C@@H](C)CC)CCCC1)[C@@H](C)CC)C(=O)N[C@@H](CC(=O)O)C(=O)N[C@@H](CCCCN)C(=O)N[C@H](C(=O)N[C@@H](Cc1c[nH]cn1)C(=O)N[C@@H](CCC(N)=O)C(=O)N[C@@H](CCC(N)=O)C(=O)N[C@@H](CC(=O)O)C(=O)N[C@@H](Cc1ccccc1)C(=O)N[C@H](C(=O)N[C@@H](CC(N)=O)C(=O)N[C@@H](Cc1c[nH]c2ccccc12)C(=O)N[C@@H](CC(C)C)C(=O)N[C@@H](CC(C)C)C(=O)N[C@@H](C)C(=O)N[C@@H](CCC(N)=O)C(=O)N[C@@H](CCCCN)C(=O)NCC(=O)N[C@@H](CCCCN)C(=O)N[C@@H](CCCCN)C(=O)N[C@@H](CC(N)=O)C(=O)N[C@@H](CC(=O)O)C(=O)N[C@@H](Cc1c[nH]c2ccccc12)C(=O)N[C@@H](CCCCN)C(=O)N[C@@H](Cc1c[nH]cn1)C(=O)N[C@@H](CC(N)=O)C(=O)N[C@H](C(=O)N[C@H](C(=O)N[C@@H](CCC(N)=O)C(=O)O)[C@@H](C)O)[C@@H](C)CC)C(C)C)[C@@H](C)CC` [Example 20, (Cpa^1, Aib^2, A5c^11, Nle^14)hGIP(1-42)-OH], for which the half-life at 0.1 mg/ml in data set [1] is above 74 h; in data set [2], 24.3 h. Also, in data set [3], the Ki came to 9.4 nM.

Turning to `CC[C@H](C)[C@H](NC(=O)[C@H](CCCCN)NC(=O)[C@H](CC(=O)O)NC(=O)[C@H](CCSC)NC(=O)[C@H](C)NC(=O)[C@@H](NC(=O)C1(NC(=O)[C@H](Cc2ccc(O)cc2)NC(=O)[C@H](CC(=O)O)NC(=O)[C@H](CO)NC(=O)[C@@H](NC(=O)[C@H](Cc2ccccc2)NC(=O)[C@@H](NC(=O)CNC(=O)[C@H](CCC(=O)O)NC(=O)C(C)(C)NC(=O)[C@@H](N)Cc2ccsc2)[C@@H](C)O)[C@@H](C)CC)CCCC1)[C@@H](C)CC)C(=O)N[C@@H](Cc1c[nH]cn1)C(=O)N[C@@H](CCC(N)=O)C(=O)N[C@@H](CCC(N)=O)C(=O)N[C@@H](CC(=O)O)C(=O)N[C@@H](Cc1ccccc1)C(=O)N[C@H](C(=O)N[C@@H](CC(N)=O)C(=O)N[C@@H](Cc1c[nH]c2ccccc12)C(=O)N[C@@H](CC(C)C)C(=O)N[C@@H](CC(C)C)C(=O)N[C@@H](C)C(=O)N[C@@H](CCC(N)=O)C(=O)N[C@@H](CCCCN)C(=O)NCC(=O)N[C@@H](CCCCN)C(=O)N[C@@H](CCCCN)C(=O)N[C@@H](CC(N)=O)C(=O)N[C@@H](CC(=O)O)C(=O)N[C@@H](Cc1c[nH]c2ccccc12)C(=O)N[C@@H](CCCCN)C(=O)N[C@@H](Cc1c[nH]cn1)C(=O)N[C@@H](CC(N)=O)C(=O)N[C@H](C(=O)NC1(C(=O)N[C@@H](CCC(N)=O)C(=O)O)CCCC1)[C@@H](C)CC)C(C)C` [Example 37, (3Thi^1, Aib^2, A5c^11, 41)hGIP(1-42)-OH], the half-life at 0.1 mg/ml is 29.3 h in data set [1] and above 72 h in data set [2]. The Ki in data set [3] stood at 7.05 nM.

For orientation: Ki means a dissociation constant, usually derived from enzyme kinetics or from competition with a known ligand.
